From PubChem BioAssay AID2060498 (Molecular Pharmacology Branch, DTP, NCI, 2025)

Test system: 171881-019-R-J1-PDC tumor spheroids, viability
Assay: Anticancer human tumor 171881-019-R-J1-PDC patient-derived invasive breast carcinoma cell line growth inhibition [GQUAD]
Conditions: spheroids with HUVEC and MSC; for IC50: curve of first compound; for viability, T/C: stronger effect = lower value
Outline: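 Multi-cell-type spheroids of tumor cells with HUVEC and mesenchymal stem cells, treated with drug combinations. Concentrations descend in half-log steps from near clinical Cmax, or from 10 microM where Cmax is unknown; viability read-out.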

[1] = second compound 0.0316 µM, first compound 0.0316 µM
[2] = second compound 0.0316 µM, first compound 0.316 µM
[3] = second compound 0.1 µM, first compound 0.0316 µM
[4] = second compound 0.1 µM, first compound 0.316 µM
[5] = second compound 0.316 µM, first compound 0.0316 µM
[6] = second compound 0.316 µM, first compound 0.316 µM
[7] = second compound 1 µM, first compound 0.0316 µM
[8] = second compound 1 µM, first compound 0.316 µM
[9] = second compound 3.16 µM, first compound 0.0316 µM
[10] = second compound 3.16 µM, first compound 0.316 µM
[11] = second compound 10 µM, first compound 0.0316 µM
[12] = second compound 10 µM, first compound 0.316 µM
[13] = second compound 0.0316 µM, first compound 0.1 µM
[14] = second compound 0.0316 µM, first compound 1 µM
[15] = second compound 0.0316 µM, first compound 3.16 µM
[16] = second compound 0.0316 µM, first compound 10 µM
[17] = second compound 0.1 µM, first compound 0.1 µM
[18] = second compound 0.1 µM, first compound 1 µM
[19] = second compound 0.1 µM, first compound 3.16 µM
[20] = second compound 0.1 µM, first compound 10 µM
[21] = second compound 0.316 µM, first compound 0.1 µM
[22] = second compound 0.316 µM, first compound 1 µM
[23] = second compound 0.316 µM, first compound 3.16 µM
[24] = second compound 0.316 µM, first compound 10 µM
[25] = second compound 1 µM, first compound 0.1 µM
[26] = second compound 1 µM, first compound 1 µM
[27] = second compound 1 µM, first compound 3.16 µM
[28] = second compound 1 µM, first compound 10 µM
[29] = second compound 3.16 µM, first compound 0.1 µM
[30] = second compound 3.16 µM, first compound 1 µM
[31] = second compound 3.16 µM, first compound 3.16 µM
[32] = second compound 3.16 µM, first compound 10 µM
[33] = second compound 10 µM, first compound 0.1 µM
[34] = second compound 10 µM, first compound 1 µM
[35] = second compound 10 µM, first compound 3.16 µM
[36] = second compound 10 µM, first compound 10 µM
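Further: spheroids exposed to compounds for 7 days.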
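Wherever viability, T/C is given: 100% = DMSO vehicle control viability.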

For `Cc1[nH]c2ccccc2c1CCNCc1ccc(/C=C/C(=O)NO)cc1` + CN(C)c1ccc(Nc2c3ccc(NC(=O)CCN4CCCC4)cc3nc3cc(NC(=O)CCN4CCCC4)ccc23)cc1, the IC50 (second compound 0.0316 µM) was 55 nM, the IC50 (second compound 0.1 µM) was 51.4 nM and the IC50 (second compound 0.316 µM) was < 0.999 nM. The IC50 (second compound 1 µM) was < 0.999 nM, the IC50 (second compound 3.16 µM) was < 0.999 nM and the IC50 (second compound 10 µM) was < 0.999 nM. It also gave a viability, T/C (second compound 0.0316 µM, first compound 0.000999 µM) of 96.9%, a viability, T/C (second compound 0.0316 µM, first compound 0.00316 µM) of 104% and a viability, T/C (second compound 0.0316 µM, first compound 0.00999 µM) of 89.9%. It also gave a viability, T/C [1] of 76.9%, a viability, T/C (second compound 0.0316 µM, first compound 0.0999 µM) of 22% and a viability, T/C [2] of 0.39%. For the same compound, the viability, T/C (second compound 0.1 µM, first compound 0.000999 µM) was 95.4%, the viability, T/C (second compound 0.1 µM, first compound 0.00316 µM) was 75.1% and the viability, T/C (second compound 0.1 µM, first compound 0.00999 µM) was 84.5%. It also gave a viability, T/C [3] of 71.8%, a viability, T/C (second compound 0.1 µM, first compound 0.0999 µM) of 20.2% and a viability, T/C [4] of 0.39%. For the same compound, the viability, T/C (second compound 0.316 µM, first compound 0.000999 µM) was 46.9%, the viability, T/C (second compound 0.316 µM, first compound 0.00316 µM) was 45.1% and the viability, T/C (second compound 0.316 µM, first compound 0.00999 µM) was 48.8%. The viability, T/C [5] was 28%, the viability, T/C (second compound 0.316 µM, first compound 0.0999 µM) was 10.8% and the viability, T/C [6] was 0.26%. The viability, T/C (second compound 1 µM, first compound 0.000999 µM) was 4.23%, the viability, T/C (second compound 1 µM, first compound 0.00316 µM) was 3.43% and the viability, T/C (second compound 1 µM, first compound 0.00999 µM) was 4.51%. It also gave a viability, T/C [7] of 1.92%, a viability, T/C (second compound 1 µM, first compound 0.0999 µM) of 0.8% and a viability, T/C [8] of 0.38%. For the same compound, the viability, T/C (second compound 3.16 µM, first compound 0.000999 µM) was 0.41%, the viability, T/C (second compound 3.16 µM, first compound 0.00316 µM) was 0.27% and the viability, T/C (second compound 3.16 µM, first compound 0.00999 µM) was 0.37%. For the same compound, the viability, T/C [9] was 0.25%, the viability, T/C (second compound 3.16 µM, first compound 0.0999 µM) was 0.14% and the viability, T/C [10] was 0.13%. It also gave a viability, T/C (second compound 10 µM, first compound 0.000999 µM) of 0.18%, a viability, T/C (second compound 10 µM, first compound 0.00316 µM) of 0.19% and a viability, T/C (second compound 10 µM, first compound 0.00999 µM) of 0.16%. It also gave a viability, T/C [11] of 0.44%, a viability, T/C (second compound 10 µM, first compound 0.0999 µM) of 0.27% and a viability, T/C [12] of 0.17%.
For `O=C(NO)c1cnc(N2CCN(S(=O)(=O)c3ccc4ccccc4c3)CC2)nc1` + CN(C)c1ccc(Nc2c3ccc(NC(=O)CCN4CCCC4)cc3nc3cc(NC(=O)CCN4CCCC4)ccc23)cc1, the IC50 (second compound 0.0316 µM) was 197 nM, the IC50 (second compound 0.1 µM) was 215 nM and the IC50 (second compound 0.316 µM) was < 31.6 nM. The IC50 (second compound 1 µM) was < 31.6 nM, the IC50 (second compound 3.16 µM) was < 31.6 nM and the IC50 (second compound 10 µM) was < 31.6 nM. For the same compound, the viability, T/C [1] was 101%, the viability, T/C [13] was 73.7% and the viability, T/C [2] was 35.6%. It also gave a viability, T/C [14] of 0.61%, a viability, T/C [15] of 0.11% and a viability, T/C [16] of 0.11%. The viability, T/C [3] was 86.7%, the viability, T/C [17] was 80.1% and the viability, T/C [4] was 34.8%. For the same compound, the viability, T/C [18] was 0.74%, the viability, T/C [19] was 0.22% and the viability, T/C [20] was 0.38%. For the same compound, the viability, T/C [5] was 44.2%, the viability, T/C [21] was 37.8% and the viability, T/C [6] was 10.6%. It also gave a viability, T/C [22] of 0.25%, a viability, T/C [23] of 0.08% and a viability, T/C [24] of 0.21%. It also gave a viability, T/C [7] of 3.24%, a viability, T/C [25] of 1.83% and a viability, T/C [8] of 0.75%. For the same compound, the viability, T/C [26] was 0.1%, the viability, T/C [27] was 0.06% and the viability, T/C [28] was 0.31%. For the same compound, the viability, T/C [9] was 0.23%, the viability, T/C [29] was 0.4% and the viability, T/C [10] was 0.28%. For the same compound, the viability, T/C [30] was 0.06%, the viability, T/C [31] was 0.08% and the viability, T/C [32] was 0.1%. It also gave a viability, T/C [11] of 0.07%, a viability, T/C [33] of 0.12% and a viability, T/C [12] of 0.38%. The viability, T/C [34] was 0.34%, the viability, T/C [35] was 0.29% and the viability, T/C [36] was 0.15%.
Compound `COc1ccc([C@@H](O)c2cc(-c3ncnc4cc(N5CCOCC5)ccc34)c(F)cc2Cl)nn1` + Cc1[nH]c2ccc(F)cc2c1-c1nc2c3cccnc3c3ncccc3c2[nH]1 has an IC50 (second compound 0.0316 µM) of 740 nM, an IC50 (second compound 0.1 µM) of 756 nM and an IC50 (second compound 0.316 µM) of 573 nM. The IC50 (second compound 1 µM) was 429 nM, the IC50 (second compound 3.16 µM) was < 31.6 nM and the IC50 (second compound 10 µM) was < 31.6 nM. It also gave a viability, T/C [1] of 107%, a viability, T/C [13] of 81.3% and a viability, T/C [2] of 74.5%. The viability, T/C [14] was 45%, the viability, T/C [15] was 14.7% and the viability, T/C [16] was 5.38%. It also gave a viability, T/C [3] of 87.2%, a viability, T/C [17] of 84.5% and a viability, T/C [4] of 70.1%. It also gave a viability, T/C [18] of 44.6%, a viability, T/C [19] of 14% and a viability, T/C [20] of 5.6%. The viability, T/C [5] was 85.6%, the viability, T/C [21] was 90.2% and the viability, T/C [6] was 56.5%. For the same compound, the viability, T/C [22] was 41%, the viability, T/C [23] was 15.5% and the viability, T/C [24] was 5.95%. The viability, T/C [7] was 94.2%, the viability, T/C [25] was 67% and the viability, T/C [8] was 64.4%. For the same compound, the viability, T/C [26] was 32.3%, the viability, T/C [27] was 12.2% and the viability, T/C [28] was 6.67%. The viability, T/C [9] was 28.9%, the viability, T/C [29] was 15.3% and the viability, T/C [10] was 14.5%. For the same compound, the viability, T/C [30] was 9.07%, the viability, T/C [31] was 8.31% and the viability, T/C [32] was 4.66%. For the same compound, the viability, T/C [11] was 37.8%, the viability, T/C [33] was 45.4% and the viability, T/C [12] was 26.6%. The viability, T/C [34] was 17.3%, the viability, T/C [35] was 9.52% and the viability, T/C [36] was 5.39%.
